Drawing on ChEMBL document CHEMBL6153083, “Synthesis, Structural Modification, and Antismall Cell Lung Cancer Activity of 3-Arylisoquinolines with Dual Inhibitory Activity on Topoisomerase I and II” (J Med Chem, 2025), this text covers Activity and inhibition for 2 compounds.

One experiment has as its system NCI-H1048. The experiment is described as follows: Induction of mitochondrial membrane permeability in human NCI-H1048 cells assessed as increase in cytochrome C release at 1 to 8 uM incubated for 48 hrs by Western blot analysis. Format: functional, cell-based. The settings on record: dose 1-8 µM. (In general: In western blotting, separated proteins are transferred to a membrane and probed.)

A short description of experiment [1]: Inhibition of PI3K/AKT/mTOR signalling pathway in human NCI-H1048 cells assessed as decrease in AKT level at 1.75 to 14 uM incubated for 48 hrs by Western blot analysis. In kind it is cell-based. The settings on record: dose 1.75-14 µM.

Active and inactive are the calls of the source. The calls are words filed in the database; no cut-off is given here.

Turning to `CC1CC(C)CN(Cc2cc3c(cc2-c2cc4ccc5c(c4cn2)OCO5)OCO3)C1` (configuration not stated), the result in the experiment on NCI-H1048 was Active.

Regarding `CCC1CCCC(C)N1Cc1cc2c(cc1-c1cc3ccc4c(c3cn1)OCO4)OCO2` (configuration not stated), the inhibition result in experiment [1] is “Active”.
